{"source": "the supplement of paper PMC10307832", "experiment_in_all_cases": "relative viability (nuclei count vs DMSO), 5 days (fraction); higher = more cells survive", "key": {"[1]": {"tested_on": "A-427", "how_it_was_run": "(§1)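 Five library-drug doses in √10 steps were combined with a fixed anchor-drug dose, or a single drug was given alone, by pin tool to lung cancer cell lines in 1536-well plates the day after seeding. Nuclei were stained and counted after 5 days. Relative viability is the nuclei count in treated wells over that in vehicle wells, taken as the median of duplicate plates.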"}, "[2]": {"tested_on": "COR-L 105", "how_it_was_run": "as §1"}, "[3]": {"tested_on": "EPLC-272H", "how_it_was_run": "as §1"}, "[4]": {"tested_on": "HCC-366", "how_it_was_run": "as §1"}, "[5]": {"tested_on": "HCC-78", "how_it_was_run": "as §1"}, "[6]": {"tested_on": "HOP-62", "how_it_was_run": "as §1"}, "[7]": {"tested_on": "LC-2-ad", "how_it_was_run": "as §1"}, "[8]": {"tested_on": "LCLC-97TM1", "how_it_was_run": "as §1"}, "[9]": {"tested_on": "LU99A", "how_it_was_run": "as §1"}, "[10]": {"tested_on": "LXF-289", "how_it_was_run": "as §1"}, "[11]": {"tested_on": "NCI-H1755", "how_it_was_run": "as §1"}, "[12]": {"tested_on": "NCI-H1792", "how_it_was_run": "as §1"}, "[13]": {"tested_on": "NCI-H1915", "how_it_was_run": "as §1"}, "[14]": {"tested_on": "NCI-H1944", "how_it_was_run": "as §1"}, "[15]": {"tested_on": "NCI-H1975", "how_it_was_run": "as §1"}, "[16]": {"tested_on": "NCI-H2085", "how_it_was_run": "as §1"}, "[17]": {"tested_on": "NCI-H2170", "how_it_was_run": "as §1"}, "[18]": {"tested_on": "NCI-H358", "how_it_was_run": "as §1"}, "[19]": {"tested_on": "NCI-H460", "how_it_was_run": "as §1"}, "[20]": {"tested_on": "SK-LU-1", "how_it_was_run": "as §1"}, "[21]": {"tested_on": "UMC-11", "how_it_was_run": "as §1"}}}
{"smiles": "Oc1nc(-c2ccc(C(F)(F)F)cc2)nc2c1CSCC2", "note": "[XAV939] + C[C@@H](Oc1cc(-c2cnn(C3CCNCC3)c2)cnc1N)c1c(Cl)ccc(F)c1Cl [Crizotinib] (partner 1 µM)", "values": [{"measurement": "relative viability", "setting": "[1]; first compound 0.08 µM", "result": 0.918}, {"measurement": "relative viability", "setting": "[1]; first compound 0.253 µM", "result": 0.909}, {"measurement": "relative viability", "setting": "[1]; first compound 0.8 µM", "result": 0.794}, {"measurement": "relative viability", "setting": "[1]; first compound 2.53 µM", "result": 0.729}, {"measurement": "relative viability", "setting": "[2]; first compound 0.08 µM", "result": 0.821}, {"measurement": "relative viability", "setting": "[2]; first compound 0.253 µM", "result": 0.762}, {"measurement": "relative viability", "setting": "[2]; first compound 0.8 µM", "result": 0.698}, {"measurement": "relative viability", "setting": "[2]; first compound 2.53 µM", "result": 0.621}, {"measurement": "relative viability", "setting": "[3]; first compound 0.08 µM", "result": 0.956}, {"measurement": "relative viability", "setting": "[3]; first compound 0.253 µM", "result": 0.96}, {"measurement": "relative viability", "setting": "[3]; first compound 0.8 µM", "result": 0.995}, {"measurement": "relative viability", "setting": "[3]; first compound 2.53 µM", "result": 0.908}, {"measurement": "relative viability", "setting": "[4]; first compound 0.08 µM", "result": 0.66}, {"measurement": "relative viability", "setting": "[4]; first compound 0.253 µM", "result": 0.56}, {"measurement": "relative viability", "setting": "[4]; first compound 0.8 µM", "result": 0.52}, {"measurement": "relative viability", "setting": "[4]; first compound 2.53 µM", "result": 0.466}, {"measurement": "relative viability", "setting": "[5]; first compound 0.08 µM", "result": 0.342}, {"measurement": "relative viability", "setting": "[5]; first compound 0.253 µM", "result": 0.316}, {"measurement": "relative viability", "setting": "[5]; first compound 0.8 µM", "result": 0.326}, {"measurement": "relative viability", "setting": "[5]; first compound 2.53 µM", "result": 0.299}, {"measurement": "relative viability", "setting": "[6]; first compound 0.08 µM", "result": 0.972}, {"measurement": "relative viability", "setting": "[6]; first compound 0.253 µM", "result": 0.862}, {"measurement": "relative viability", "setting": "[6]; first compound 0.8 µM", "result": 0.906}, {"measurement": "relative viability", "setting": "[6]; first compound 2.53 µM", "result": 0.727}, {"measurement": "relative viability", "setting": "[7]; first compound 0.08 µM", "result": 0.468}, {"measurement": "relative viability", "setting": "[7]; first compound 0.253 µM", "result": 0.382}, {"measurement": "relative viability", "setting": "[7]; first compound 0.8 µM", "result": 0.435}, {"measurement": "relative viability", "setting": "[7]; first compound 2.53 µM", "result": 0.489}, {"measurement": "relative viability", "setting": "[8]; first compound 0.08 µM", "result": 0.488}, {"measurement": "relative viability", "setting": "[8]; first compound 0.253 µM", "result": 0.344}, {"measurement": "relative viability", "setting": "[8]; first compound 0.8 µM", "result": 0.361}, {"measurement": "relative viability", "setting": "[8]; first compound 2.53 µM", "result": 0.305}, {"measurement": "relative viability", "setting": "[9]; first compound 0.08 µM", "result": 0.539}, {"measurement": "relative viability", "setting": "[9]; first compound 0.253 µM", "result": 0.55}, {"measurement": "relative viability", "setting": "[9]; first compound 0.8 µM", "result": 0.567}, {"measurement": "relative viability", "setting": "[9]; first compound 2.53 µM", "result": 0.504}, {"measurement": "relative viability", "setting": "[10]; first compound 0.08 µM", "result": 0.833}, {"measurement": "relative viability", "setting": "[10]; first compound 0.253 µM", "result": 0.754}, {"measurement": "relative viability", "setting": "[10]; first compound 0.8 µM", "result": 0.829}, {"measurement": "relative viability", "setting": "[10]; first compound 2.53 µM", "result": 0.874}, {"measurement": "relative viability", "setting": "[11]; first compound 0.08 µM", "result": 0.832}, {"measurement": "relative viability", "setting": "[11]; first compound 0.253 µM", "result": 0.731}, {"measurement": "relative viability", "setting": "[11]; first compound 0.8 µM", "result": 0.778}, {"measurement": "relative viability", "setting": "[11]; first compound 2.53 µM", "result": 0.762}, {"measurement": "relative viability", "setting": "[12]; first compound 0.08 µM", "result": 0.994}, {"measurement": "relative viability", "setting": "[12]; first compound 0.253 µM", "result": 0.896}, {"measurement": "relative viability", "setting": "[12]; first compound 0.8 µM", "result": 0.977}, {"measurement": "relative viability", "setting": "[12]; first compound 2.53 µM", "result": 0.902}, {"measurement": "relative viability", "setting": "[13]; first compound 0.08 µM", "result": 0.949}, {"measurement": "relative viability", "setting": "[13]; first compound 0.253 µM", "result": 0.899}, {"measurement": "relative viability", "setting": "[13]; first compound 0.8 µM", "result": 0.891}, {"measurement": "relative viability", "setting": "[13]; first compound 2.53 µM", "result": 0.86}, {"measurement": "relative viability", "setting": "[14]; first compound 0.08 µM", "result": 1.32}, {"measurement": "relative viability", "setting": "[14]; first compound 0.253 µM", "result": 1.08}, {"measurement": "relative viability", "setting": "[14]; first compound 0.8 µM", "result": 1.03}, {"measurement": "relative viability", "setting": "[14]; first compound 2.53 µM", "result": 0.959}, {"measurement": "relative viability", "setting": "[15]; first compound 0.08 µM", "result": 1.07}, {"measurement": "relative viability", "setting": "[15]; first compound 0.253 µM", "result": 0.666}, {"measurement": "relative viability", "setting": "[15]; first compound 0.8 µM", "result": 0.919}, {"measurement": "relative viability", "setting": "[15]; first compound 2.53 µM", "result": 0.737}, {"measurement": "relative viability", "setting": "[16]; first compound 0.08 µM", "result": 0.961}, {"measurement": "relative viability", "setting": "[16]; first compound 0.253 µM", "result": 0.826}, {"measurement": "relative viability", "setting": "[16]; first compound 0.8 µM", "result": 0.917}, {"measurement": "relative viability", "setting": "[16]; first compound 2.53 µM", "result": 0.734}, {"measurement": "relative viability", "setting": "[17]; first compound 0.08 µM", "result": 1.28}, {"measurement": "relative viability", "setting": "[17]; first compound 0.253 µM", "result": 1.01}, {"measurement": "relative viability", "setting": "[17]; first compound 0.8 µM", "result": 1.02}, {"measurement": "relative viability", "setting": "[17]; first compound 2.53 µM", "result": 0.921}, {"measurement": "relative viability", "setting": "[18]; first compound 0.08 µM", "result": 0.729}, {"measurement": "relative viability", "setting": "[18]; first compound 0.253 µM", "result": 0.45}, {"measurement": "relative viability", "setting": "[18]; first compound 0.8 µM", "result": 0.563}, {"measurement": "relative viability", "setting": "[18]; first compound 2.53 µM", "result": 0.573}, {"measurement": "relative viability", "setting": "[19]; first compound 0.08 µM", "result": 1.44}, {"measurement": "relative viability", "setting": "[19]; first compound 0.253 µM", "result": 0.879}, {"measurement": "relative viability", "setting": "[19]; first compound 0.8 µM", "result": 0.816}, {"measurement": "relative viability", "setting": "[19]; first compound 2.53 µM", "result": 0.874}, {"measurement": "relative viability", "setting": "[20]; first compound 0.08 µM", "result": 0.929}, {"measurement": "relative viability", "setting": "[20]; first compound 0.253 µM", "result": 0.809}, {"measurement": "relative viability", "setting": "[20]; first compound 0.8 µM", "result": 0.936}, {"measurement": "relative viability", "setting": "[20]; first compound 2.53 µM", "result": 0.823}, {"measurement": "relative viability", "setting": "[21]; first compound 0.08 µM", "result": 0.777}, {"measurement": "relative viability", "setting": "[21]; first compound 0.8 µM", "result": 0.578}, {"measurement": "relative viability", "setting": "[21]; first compound 2.53 µM", "result": 0.414}]}
